We go through 16 molecules from EPA's ToxValDB 9.5.

In one data set the test system is Canidae. As to conditions: subchronic; duration: 90 days; oral; capsule / gavage; M/F; Beagle; Protruding nictitating membranes, dilated pupils, eye redness and decreased indirect pupillary light response.
Data set [1] deals with Rattus norvegicus. As to conditions: oral.
The subject of data set [2] is Rattus norvegicus. The following applies: oral. The source holds these as a separate data set.
The next data set relates to Oryctolagus sp. The following applies: acute, dermal.
For data set [3], the system named is Rattus norvegicus.
For data set [4], the system named is Rattus norvegicus. The following applies: oral; for NOAEL: M/F.
The test system of data set [5] is Rattus norvegicus. As to conditions: oral. The source holds these as a separate data set.
Data set [6] has as its system Rattus norvegicus. The following applies: subchronic; duration: 13 weeks; oral; drinking water; M/F; Sprague-Dawley; metabolic.
For a further data set, the system named is Mus musculus. The following applies: short-term; duration: 14 days; oral; drinking water; M/F; B6C3F1; hepatic.
Data set [7] deals with Rattus norvegicus. The following applies: Hershberger; duration: 10 days; oral; gavage; Sprague-Dawley; inactive + Negative + Negative + neither + negative.
[8] abbreviates: subchronic, duration: 90 days, diet, Sprague-Dawley.
Where [9] appears, read: developmental, oral, F, reduced delayed hypersensitivity response.
Setting [10] is: reproduction developmental, Long-Evans, Micromelia, ectromelia, curved femur and microfetalis.
The mark [11] stands for this setting: chronic, duration: 2 years, drinking water, M/F, Long-Evans, Whole Body Effects.
[12] abbreviates: chronic, duration: 2 years, oral, diet, M/F, reduced body weight (males), inflammatory foci in kidneys of females.
The mark [13] stands for this setting: chronic, oral, M/F, reduced body weight.
Where [14] appears, read: subchronic, duration: 90 days, inhalation, M/F, nasal turbinates.

A word on the LOAEL: it is the lowest dose or exposure tested at which an adverse effect was seen. Consider `CN1C(=O)[C@]23C[C@H]4C(C)(C)[C@]5(CNc6c5ccc5c6OC=CC(C)(C)O5)C[C@@]41CN2CC[C@@]3(C)O`, for which the LOAEL with Canidae came to 0.1 mg/kg-day.
A word on the NOAEL: it is the highest tested level that showed no adverse finding. Regarding `Clc1cccc(Cl)c1Cl` [1,2,3-Trichlorobenzene], the NOAEL in the data set with Rattus norvegicus [1] (subchronic, duration: 13 weeks, diet, M, Sprague-Dawley, Whole Body Effects, Hepatic) was found to be 7.7 mg/kg-day; with Rattus norvegicus [2] (developmental, duration: 10 days, gavage, Sprague-Dawley), 600 mg/kg-day; in the data set with Rattus norvegicus [2] (reproduction developmental, duration: 10 days, gavage, F, Sprague-Dawley), 150 mg/kg-day; in the data set on Rattus norvegicus [2] (setting [8]), 9.6 mg/kg-day. Moreover, in the data set with Rattus norvegicus [2] (setting [8]), the LOAEL amounted to 96 mg/kg-day.
A word on the LD50: it is the dose expected to kill half of the subjects tested. A high value points to lower toxicity. For the molecule `FC(F)(F)c1ccc(Cl)c(Cl)c1` [1,2-Dichloro-4-(trifluoromethyl)benzene], the NOAEL is 60 mg/kg-day in the data set on Rattus norvegicus [1] (short-term, duration: 14 days, gavage, M/F, Albino CD) and 20 ppm in the data set with Rattus norvegicus [2] (short-term, duration: 28 days, diet, Sprague-Dawley). For the same molecule, the LD50 with Rattus norvegicus [2] (acute, CF Nelson) is 1150 mg/kg; in the data set with Oryctolagus sp., more than 5000 mg/kg; in the data set on Oryctolagus sp. (occlusive) it was 5000 mg/kg.
The molecule `ClCCCCl` [1,3-Dichloropropane] had an NOAEL with Rattus norvegicus [1] (subchronic, duration: 90 days, gavage, M/F, Sprague-Dawley, Hepatic, Urinary) of 50 mg/kg-day.
`Oc1ccc(Cl)cc1Cl` [2,4-Dichlorophenol]: the LOAEL in the data set on Rattus norvegicus [3] (setting [9]) was 3 mg/kg-day; with Rattus norvegicus [1] (subchronic, duration: 13 weeks, drinking water, M/F, Sprague-Dawley, Whole Body Effects), 3 mg/kg-day. In addition, in the data set on Rattus norvegicus [3] (setting [9]), the NOEL came out at 0.3 mg/kg-day. The NOAEL in the data set on Rattus norvegicus [4] (subchronic, duration: 90 days, diet, Fischer 344, Clinical Observation: Hunched posture Rough hair coats + Body Weight Changes: decrease + Food Consumption: decrease, (palatability decrease…) is 480 mg/kg-day.
For `Cc1c(N)cccc1N` [2,6-Toluenediamine], the NOAEL stood at 25 mg/kg-day in the data set with Rattus norvegicus [1] (chronic, duration: 2 years, diet, M, Fischer 344, Whole Body Effects) and 62 mg/kg-day with Rattus norvegicus [1] (chronic, duration: 91 days, diet, M, Fischer 344, Whole Body Effects).
`O=[N+]([O-])c1cc(C(F)(F)F)ccc1Cl` [4-Chloro-3-nitrobenzotrifluoride] came in with an LOAEL with Rattus norvegicus [1] (short-term, duration: 28 days, gavage, M, Sprague-Dawley) of 1 mg/kg-day.
As to `CC(=O)c1ccccc1` [Acetophenone], the NOAEL in the data set on Rattus norvegicus [3] (subchronic, oral, M/F, general toxicity) was found to be 423 mg/kg-day; in the data set on Rattus norvegicus [1] (reproduction developmental, gavage, M/F, Sprague-Dawley), 225 mg/kg-day.
In the case of `CCCSc1ccc2nc(NC(=O)OC)[nH]c2c1` [Albendazole], in the data set on Rattus norvegicus [5] (setting [10]), the LOEL was 10 mg/kg-day and the NOEL is 5 mg/kg-day.
The molecule `[Cl][Sb]([Cl])[Cl]` [Antimony trichloride] registered an LOAEL in the data set with Rattus norvegicus [1] (setting [11]) of 0.35 mg/kg-day.
Turning to `[Sb]` [Antimony], the lowest-observed-adverse-effect level (LOAEL) came to 0.35 mg/kg-day in the data set on Rattus norvegicus [3] (chronic, oral, M/F, longevity, blood glucose, and cholesterol); 0.35 mg/kg-day in the data set with Rattus norvegicus [1] (setting [11]). Moreover, the NOAEL with Rattus norvegicus [6] was 0.06 mg/kg-day; with Mus musculus it was 99 mg/kg-day.
The molecule `COC[C@H]1O[C@@H](OC2OC[C@@H]3O[C@]4(O[C@H]3[C@H]2OC(=O)C(C)C)O[C@H](C)[C@@](O)(C(C)=O)[C@@H]2OCO[C@H]24)[C@@H](OC)[C@@H](O)[C@@H]1O[C@@H]1O[C@H](C)[C@H](OC)[C@H](O[C@H]2C[C@@]3(C)OC4(C[C@@H](O)[C@H](O[C@H]5C[C@@H](O)[C@H](OC(=O)c6c(C)c(Cl)c(O)c(Cl)c6OC)[C@@H](C)O5)[C@@H](C)O4)O[C@@H]3[C@@H](C)O2)[C@H]1O` (stereo partly drawn) [Avilamycin] gave an NOEL with Rattus norvegicus [5] (reproduction developmental, duration: 2 years, diet, M/F, Sprague-Dawley, no effects) of 150 mg/kg-day.
For the molecule `CC1(C)C(C=C(Cl)Cl)C1C(=O)OC(C#N)c1ccc(F)c(Oc2ccccc2)c1` (stereo not drawn) [Cyfluthrin], the NOEL was 2 mg/kg-day in the data set with Rattus norvegicus [5] (chronic, duration: 2 years, diet, M/F, Wistar, Depressed bodyweight gain); 2 mg/kg-day with Rattus norvegicus [5] (dietary / carcinogenicity, duration: 2 years, feed, M/F, Wistar, Depressed bodyweight gain); 2.5 mg/kg-day with Rattus norvegicus [3] (setting [12]); 20 mg/kg-day with Rattus norvegicus [7]. In the data set on Rattus norvegicus [3] (setting [12]), the LEL worked out at 7.5 mg/kg-day.
Consider `c1ccc2c(c1)oc1ccccc12` [Dibenzofuran], for which the LOAEL with Rattus norvegicus [1] (chronic, duration: 200 days, diet, F, albino, Whole Body Effects) is 12.3 mg/kg-day. Also, in the data set on Rattus norvegicus [4] (short-term, duration: 28 days, gavage, F, Sprague-Dawley, Clinical Observation: Locomotor activity decrease, Salivation Soiled perineal region + Body Weight Changes: decrease + Urinalysis: Volume …), the NOEL amounted to 40 mg/kg-day. In the data set on Rattus norvegicus [4] (short-term, duration: 28 days, gavage, Sprague-Dawley, Clinical Observation: Locomotor activity decrease, Salivation Soiled perineal region + Body Weight Changes: decrease + Urinalysis: Volume …), the NOAEL was 40 mg/kg-day.
In the data set with Rattus norvegicus [3] (setting [13]), `FC(F)(Cl)Cl` [Dichlorodifluoromethane] came in with an LOAEL of 150 mg/kg-day and an NOAEL of 15 mg/kg-day. In addition, the NOAEL in the data set on Rattus norvegicus [1] (chronic, duration: 2 years, gavage, M/F, Crl:CD(SD), Whole Body Effects) came to 15 mg/kg-day.
With `ClCC1CO1` (stereo not drawn) [Epichlorohydrin], the LOAEL in the data set on Rattus norvegicus [3] (setting [14]) was determined as 95 mg/m3; in the data set on Rattus norvegicus [1] (reproduction developmental, duration: 23 days, gavage, M, Long-Evans, reproductive) it was 6.25 mg/kg-day. Moreover, the NOAEL with Rattus norvegicus [3] (setting [14]) was 19 mg/m3.
